From patent EP0996429B1, “SOLID STATE SOLUTIONS AND DISPERSIONS OF POORLY WATER SOLUBLE DRUGS” (MERCK PATENT GmbH, priority 1997, dated 1999)

Key:
[1] = Intrinsic dissolution of ibuprofen and HydroSolve-Ibuprofen in pH 7.2 buffer (paddle, absorbance 221 nm); type: physicochemical; conditions: 700 ml pH 7.2 buffer, paddle 50 rpm
Experimental: b. Procedures: • 1.Melt Gelucire and Pluronic, and dissolve ibuprofen into the mixture. • 2.Add the above solution into Sorbitol Instant while stirring. • 3.Cool down and pass through #20 mesh screen. c. Dissolution Test Using the Dissolution Test as follows: • 1.Measure 3.3 mg and 17.2 mg of ibuprofen (20 micron) and HydroSolve - Ibuprofen, respectively. • 2.Measure the dissolution profiles using 700 ml of pH 7.2 buffer and paddle at 50 rpm. • 3.Measure the absorbance at 221 nm.

[2] = Intrinsic dissolution of phenytoin and HydroSolve-phenytoin in DI water (paddle method, absorbance 220 nm); type: physicochemical; conditions: 900 ml D1 water, Paddle Method 50 rpm
Experimental: b. Procedures: • 1. Melt Gelucire and Pluronic together. • 2. Dissolve the phenytoin into above solution. • 3. Congeal this suspension and pass through #20 mesh. • 4. Measure about 32 and 110 mg of phenytoin and HydroSolve - phenytoin, respectively. • 5. Measure the dissolution profiles using 900 ml of D1 water and Paddle Method at 50 rpm. • 6. Using D1 water as blank, measure the absorbance at 220 nm of each sample which is filtered through 0.45 micron filters. • 7. Calculate the percent released by standard curve: Absorbance = 0.4072 x Concentration (mg/100ml) + 0.0227 [formula] c.

| Dissolution profile (Results) ([1]; Time 10 min) | Dissolution profile (Results) ([1]; Time 20 min) | Dissolution profile (Results) ([1]; Time 30 min) | % Dissolved (%) ([2]; Time 0.5 h) | % Dissolved (%) ([2]; Time 1 h) | % Dissolved (%) ([2]; Time 2 h) | % Dissolved (%) ([2]; Time 3 h) | Compound |
| --- | --- | --- | --- | --- | --- | --- | --- |
| 75.93 | 81.14 | 81.14 | – | – | – | – | CC(C)Cc1ccc(C(C)C(=O)O)cc1 (stereo not shown) [Ibuprofen] |
| – | – | – | 3.03 | 5.92 | 14.42 | 20.58 | O=C1NC(=O)C(c2ccccc2)(c2ccccc2)N1 [Phenytoin] |
